Measurements as given in patent US10233158B2, “Arylalkyl- and aryloxyalkyl-substituted epithelial sodium channel blocking compounds” (Parion Sciences, Inc., priority 2013, dated 2019).

How the values were obtained:
ENaC = biological target: T1, ENaC (Canis lupus familiaris, UniProt A0A8I3MKE6+A0A8I3Q679+Q95165); assay: Inhibition of short-circuit current (ISC) and reversibility, bronchial epithelial monolayers in Ussing chamber, canine cells; format: cell-based; conditions: canine bronchial epithelial cells (CBE); mean ± SD (n)
T1 sequence (A0A8I3Q679 1-649): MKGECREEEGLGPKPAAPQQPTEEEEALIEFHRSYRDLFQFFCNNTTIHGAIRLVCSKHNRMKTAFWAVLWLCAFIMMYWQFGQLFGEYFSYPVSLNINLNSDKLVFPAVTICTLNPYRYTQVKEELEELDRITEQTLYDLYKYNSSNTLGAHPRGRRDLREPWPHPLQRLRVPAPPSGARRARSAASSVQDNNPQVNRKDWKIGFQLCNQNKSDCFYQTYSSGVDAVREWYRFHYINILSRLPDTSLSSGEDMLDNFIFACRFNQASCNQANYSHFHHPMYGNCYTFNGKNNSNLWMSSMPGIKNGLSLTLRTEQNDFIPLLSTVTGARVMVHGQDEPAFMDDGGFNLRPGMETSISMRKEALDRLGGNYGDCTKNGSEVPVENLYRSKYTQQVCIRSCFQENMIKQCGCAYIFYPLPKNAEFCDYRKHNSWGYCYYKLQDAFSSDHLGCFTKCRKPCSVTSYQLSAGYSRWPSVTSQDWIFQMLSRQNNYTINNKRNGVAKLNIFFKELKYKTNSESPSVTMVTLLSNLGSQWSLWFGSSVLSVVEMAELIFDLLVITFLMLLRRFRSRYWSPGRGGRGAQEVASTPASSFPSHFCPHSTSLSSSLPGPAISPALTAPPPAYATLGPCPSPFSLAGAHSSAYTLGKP
T1 sequence (Q95165 1-641): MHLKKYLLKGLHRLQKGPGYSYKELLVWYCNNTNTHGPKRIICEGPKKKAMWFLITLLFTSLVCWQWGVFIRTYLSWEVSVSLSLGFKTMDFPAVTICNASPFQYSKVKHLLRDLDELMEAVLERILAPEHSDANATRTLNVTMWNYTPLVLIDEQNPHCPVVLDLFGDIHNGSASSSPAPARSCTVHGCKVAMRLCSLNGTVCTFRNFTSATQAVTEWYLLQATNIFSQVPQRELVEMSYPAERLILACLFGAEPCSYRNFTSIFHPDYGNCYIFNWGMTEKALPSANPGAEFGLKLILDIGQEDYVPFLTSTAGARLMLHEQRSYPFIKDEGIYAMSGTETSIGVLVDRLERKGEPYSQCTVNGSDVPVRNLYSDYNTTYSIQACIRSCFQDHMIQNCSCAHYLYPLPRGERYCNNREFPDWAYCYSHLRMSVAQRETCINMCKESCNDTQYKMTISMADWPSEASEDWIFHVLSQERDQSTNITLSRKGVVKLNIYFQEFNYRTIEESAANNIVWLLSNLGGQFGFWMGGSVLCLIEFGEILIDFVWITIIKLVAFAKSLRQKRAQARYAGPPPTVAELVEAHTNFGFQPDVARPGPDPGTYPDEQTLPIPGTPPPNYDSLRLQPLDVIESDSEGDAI
T1 sequence (A0A8I3MKE6 1-646): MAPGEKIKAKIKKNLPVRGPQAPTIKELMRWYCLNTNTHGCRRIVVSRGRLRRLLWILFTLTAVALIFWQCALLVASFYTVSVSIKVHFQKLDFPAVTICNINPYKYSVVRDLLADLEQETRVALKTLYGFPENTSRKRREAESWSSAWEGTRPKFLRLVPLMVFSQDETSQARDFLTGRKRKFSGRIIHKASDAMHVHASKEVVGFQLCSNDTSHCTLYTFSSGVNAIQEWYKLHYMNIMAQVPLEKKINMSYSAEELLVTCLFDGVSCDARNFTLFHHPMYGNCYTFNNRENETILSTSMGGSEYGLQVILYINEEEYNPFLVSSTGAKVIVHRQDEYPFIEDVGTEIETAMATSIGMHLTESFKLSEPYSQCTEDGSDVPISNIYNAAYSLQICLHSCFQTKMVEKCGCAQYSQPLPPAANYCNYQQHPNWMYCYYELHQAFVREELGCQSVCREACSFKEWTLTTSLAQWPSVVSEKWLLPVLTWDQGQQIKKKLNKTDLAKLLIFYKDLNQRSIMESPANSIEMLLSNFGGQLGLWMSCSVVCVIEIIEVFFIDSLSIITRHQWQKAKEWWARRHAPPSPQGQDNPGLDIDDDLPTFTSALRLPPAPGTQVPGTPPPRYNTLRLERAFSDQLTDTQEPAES
Method: One assay used to assess mechanism of action and/or potency of the compounds of the present invention involves the determination of luminal drug inhibition of airway epithelial sodium currents measured under short circuit current (ISC) using airway epithelial monolayers mounted in Ussing chambers. Cells are obtained from freshly excised human, canine, sheep or rodent airways.
Inhibition of transcellular sodium movement through ENaC was measured using polarized bronchial epithelial cell monolayers mounted in a modified Ussing chamber. Primary cultures of canine or human bronchial epithelial cells grown using an air-liquid interface were tested under voltage clamp conditions. The short-circuit current (ISC) was measured as an index of transepithelial sodium transport to assess potency.
Recovery of short circuit current (ISC) from maximal block was used as an indirect measurement of drug off-rate.

Muc5B = Muc5B (Homo sapiens, UniProt Q9HC84); conditions: in vitro; cited from earlier work

SMILES | IC50 (ENaC) [nM] | concentration required to fully reduce Muc5B (Muc5B) [mM]
N=C(NCCCCc1ccc(OCCN(CCCc2ccccc2)C[C@H](O)[C@@H](O)[C@H](O)[C@H](O)CO)cc1)NC(=O)c1nc(Cl)c(N)nc1N [Compound 12, 3,5-diamino-6-chloro-N—(N-(4-(4-(2-(((2S,3R,4R,5R)-2,3,4,5,6-pentahydroxyhexyl)(3-phenylpropyl)amino)ethoxy)phenyl)butyl)carbamimidoyl)pyrazine-2-carboxamide] | 6.6 ± 7 | 
N=C(NCCCCc1ccc(OCCN(CCCc2ccc3ccccc3c2)C[C@H](O)[C@@H](O)[C@H](O)[C@H](O)CO)cc1)NC(=O)c1nc(Cl)c(N)nc1N [Compound 17, 3,5-diamino-6-chloro-N—(N-(4-(4-(2-((3-(naphthalen-2-yl)propyl)((2S,3R,4R,5R)-2,3,4,5,6-pentahydroxyhexyl)amino)ethoxy)phenyl)butyl)carbamimidoyl)pyrazine-2-carboxamide] | 5.6 ± 9 | 
N=C(NCCCCc1ccc(OCCN(CCCc2cccc3ccccc23)C[C@H](O)[C@@H](O)[C@H](O)[C@H](O)CO)cc1)NC(=O)c1nc(Cl)c(N)nc1N [Compound 27, 3,5-diamino-6-chloro-N—(N-(4-(4-(2-((3-(naphthalen-1-yl)propyl)((2S,3R,4R,5R)-2,3,4,5,6-pentahydroxyhexyl)amino)ethoxy)phenyl)butyl)carbamimidoyl)pyrazine-2-carboxamide] | 5.9 ± 4.8 | 
N=C(NCCCCc1ccc(CCCN(CCCc2ccccc2)C[C@H](O)[C@@H](O)[C@H](O)[C@H](O)CO)cc1)NC(=O)c1nc(Cl)c(N)nc1N [Compound 40, 3,5-diamino-6-chloro-N—(N-(4-(4-(3-(((2S,3R,4R,5R)-2,3,4,5,6-pentahydroxyhexyl)(3-phenylpropyl)amino)propyl)phenyl)butyl)carbamimidoyl)pyrazine-2-carboxamide] | 11.8 ± 8.2 | 
CC(=O)N[C@@H](CS)C(=O)O [NAC, N-acetyl cysteine] |  | 200
